These results are taken from patent publication US20140105996A1, “Avian-Based Treatment” (Cocky Smart Pty Ltd, priority 2011, published 2014).

The assay concerns A2058 melanoma cells. Kind of assay: Growth of A2058 melanoma cells with EP-2 or TPP (Examples 1-3). It counts as cell-based. On the procedure: Saturated solutions of bird extract EP-2, 10 ng/mL triphenyl phosphate (TPP) or control media were used to saturate growth medium containing melanoma cells (A2058 Melanoma cells) at a concentration of approximately 1.2×10^4 cells/well or 1.0×10^4 cells/well. All results are average cell counts for experiments performed in triplicate (see FIG. 1). TPP was investigated on the basis of the findings in Zurhaar WO2008/019452 “Insect Repellent” that the insect repellent factor in an avian extract was TPP.
Pooled solvent vehicle (ethanol, methanol and pentane—used for EP-2 extraction), avian extract EP-2 and TPP were applied to 4×10^4 A2058 cells in 12 well plates.
To further investigate the effect of EP-2 on cells in general, a ⅕ dilution of avian extract EP-2 was placed on 1×10^4 A2058 melanoma cells and HEK293 non-cancerous human embryonic kidney cells.

Take `O=P(Oc1ccccc1)(Oc1ccccc1)Oc1ccccc1` [TPP, Triphenyl phosphate]: for the setting “Example 1, by day 9, 10 ng/mL TPP”, the “lower growth rate than cells containing control medium” value stood at 25%. For the same molecule, the “effect on cell growth” value (Example 2) was “moderate effect”.
